# From ChEMBL document CHEMBL5154818, “Development of oxoisoaporphine derivatives with topoisomerase I inhibition and reversal of multidrug resistance in breast cancer MCF-7/ADR cells” (Eur J Med Chem, 2022)
# Active and inactive are the calls of the source. The calls are words filed in the database; no cut-off is given here.
# Legend:
# A549 = assay: Antiproliferative activity against human A549 cells after 48 hrs by MTT assay; type: functional, cell-based; details: A549, 48 h
# HepG2 = assay: Antiproliferative activity against human HepG2 cells after 48 hrs by MTT assay; type: functional, cell-based; details: HepG2, 48 h
# NCI/ADR-RES [1] = assay: Antiproliferative activity against human MCF7/ADR cells after 48 hrs by MTT assay; type: functional, cell-based
# MDA-MB-231 = assay: Antiproliferative activity against human MDA-MB-231 cells after 48 hrs by MTT assay; type: functional, cell-based; details: MDA-MB-231, 48 h
# L02 = assay: Antiproliferative activity against human L02 cells after 48 hrs by MTT assay; type: functional, cell-based; details: L02, 48 h
# Calf thymus DNA [2] = assay: Binding affinity to calf thymus DNA assessed as red shift in absorption spectra at 20 uM by UV-vis absorption spectroscopy; type: nucleic-acid assay; details: Bos taurus
# Calf thymus DNA [3] = assay: Binding affinity to calf thymus DNA assessed as hypochromicity at 20 uM measured by UV-vis absorption spectroscopy; type: nucleic-acid assay; details: Bos taurus
# [4] = molecular target: T1, DNA topoisomerase 1 (Homo sapiens) (UniProt P11387); assay: Inhibition of human DNA topoisomerase 1 assessed as reduction in pBR322 DNA relaxation at 50 to 100 uM measured by gel electrophoresis method; details: dose 50-100 µM
# T1 sequence (whole entry): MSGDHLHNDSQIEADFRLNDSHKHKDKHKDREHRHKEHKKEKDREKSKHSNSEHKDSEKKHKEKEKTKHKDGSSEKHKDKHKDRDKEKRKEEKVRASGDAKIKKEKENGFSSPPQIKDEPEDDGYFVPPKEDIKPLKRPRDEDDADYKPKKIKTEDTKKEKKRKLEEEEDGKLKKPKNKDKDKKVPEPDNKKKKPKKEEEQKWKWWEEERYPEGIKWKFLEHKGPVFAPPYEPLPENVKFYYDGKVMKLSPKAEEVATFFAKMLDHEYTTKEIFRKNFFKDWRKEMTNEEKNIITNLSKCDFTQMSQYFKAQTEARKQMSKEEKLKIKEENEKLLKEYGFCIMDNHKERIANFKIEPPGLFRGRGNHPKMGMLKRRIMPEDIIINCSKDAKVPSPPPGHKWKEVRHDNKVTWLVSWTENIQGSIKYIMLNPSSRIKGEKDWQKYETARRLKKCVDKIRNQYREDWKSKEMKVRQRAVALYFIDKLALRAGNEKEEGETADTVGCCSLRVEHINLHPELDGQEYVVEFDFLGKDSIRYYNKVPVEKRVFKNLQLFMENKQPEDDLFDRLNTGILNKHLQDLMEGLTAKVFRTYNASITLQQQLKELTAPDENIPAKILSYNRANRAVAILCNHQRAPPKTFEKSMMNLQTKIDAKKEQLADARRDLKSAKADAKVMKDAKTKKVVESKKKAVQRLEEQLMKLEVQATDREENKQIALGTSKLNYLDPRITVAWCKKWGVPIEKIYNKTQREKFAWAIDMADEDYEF
# MCF7 [5] = assay: Induction of cell cycle arrest in human MCF7 cells assessed accumulation of cells at G1 phase at 2 uM measured after 48 hrs by propidium iodide staining based flow cytometric analysis (reference value: 45.94%); type: functional
# MCF7 [6] = assay: Induction of cell cycle arrest in human MCF7 cells assessed accumulation of cells at S phase at 2 uM measured after 48 hrs by propidium iodide staining based flow cytometric analysis (reference value: 27.53%); type: functional
# MCF7 [7] = assay: Induction of cell cycle arrest in human MCF7 cells assessed accumulation of cells at G2 phase at 2 uM measured after 48 hrs by propidium iodide staining based flow cytometric analysis (reference value: 37.81%); type: functional
# MCF7 [8] = assay: Induction of cell cycle arrest in human MCF7 cells assessed accumulation of cells at G1 phase at 4 uM measured after 48 hrs by propidium iodide staining based flow cytometric analysis (reference value: 45.94%); type: functional
# MCF7 [9] = assay: Induction of apoptosis in human MCF7 cells assessed as late apoptotic cells at 2 to 8 uM incubated for 48 hrs by Annexin V-FITC/propidium iodide staining based flow cytometry analysis; type: functional; details: dose 2-8 µM
# MCF7 [10] = assay: Induction of apoptosis in human MCF7 cells assessed as increase in cleaved caspase-3 expression 1.5 to 6 uM incubated for 24 hrs by Western blotting analysis; type: functional, cell-based; details: dose 1.5-6 µM
# MCF7 [11] = assay: Induction of apoptosis in human MCF7 cells assessed as increase in cleaved PARP expression 1.5 to 6 uM incubated for 24 hrs by Western blotting analysis; type: functional, cell-based; details: dose 1.5-6 µM
# NCI/ADR-RES [12] = assay: Induction of apoptosis in human MCF7/ADR cells assessed as increase in apoptotic rate at 2 to 8 uM measured after 48 hrs by Annexin V-FITC/propidium iodide staining based flow cytometry analysis; type: functional; details: dose 2-8 µM
# NCI/ADR-RES [13] = assay: Induction of apoptosis in human MCF7/ADR cells assessed as increase intracellular ROS level at 0.1 uM measured by DCFH-DA dye based flow cytometric analysis; type: functional, cell-based
# Danio rerio = species: Danio rerio; assay: Induction of apoptosis in zebrafish embryo assessed as increase intracellular ROS level at 0.01 to 1 uM measured by DCFH-DA dye based flow cytometric analysis; type: functional, organism-based; details: dose 0.01-1 µM
# NCI/ADR-RES [14] = assay: Induction of apoptosis in human MCF7/ADR cells assessed as decrease in Bcl-2 expression at 5 to 20 uM measured after 24 hrs by Western blotting analysis; type: functional, cell-based; details: dose 5-20 µM
# [15] = molecular target: T2, ATP-dependent translocase ABCB1 (Homo sapiens, UniProt P08183); assay: Inhibition of P-gp-mediated multidrug resistance in human MCF7/ADR cells at 10 to 20 uM assessed as rhodamine123 accumulation treated with rhodamine123 measured after 24 hrs by flow cytometry; type: cell-based; details: nci/adr-res, dose 10-20 µM
# [16] = molecular target: T2, ATP-dependent translocase ABCB1; assay: Inhibition of P-gp-mediated multidrug resistance in human MCF7/ADR cells assessed as decrease in P-gp expression at 10 uM measured after 24 hrs by Western blot analysis; type: cell-based; details: NCI/ADR-RES
# [17] = molecular target: T2, ATP-dependent translocase ABCB1; assay: Inhibition of P-gp-mediated multidrug resistance in human MCF7/ADR cells assessed as decrease in P-gp expression at 20 uM measured after 24 hrs by Western blot analysis; type: cell-based; details: NCI/ADR-RES
# MCF7 [18] = assay: Antitumor activity against human MCF7 cells xenografted in Balb/c nude mouse assessed as tumor growth inhibition at 10 mg/kg, ip administered 3 times a week for 3 weeks; type: functional; details: MCF7, 504 h, read-out: TGI
# [19] = Toxicity in BALB/c nude mouse xenografted with human MCF7 cells assessed as heart tissue damage at 1 to 10 mg/kg, ip administered 3 times a week for 3 weeks; type: organism-based; details: in vivo, 504 h, dose 1-10 mg/kg
# [20] = Toxicity in BALB/c nude mouse xenografted with human MCF7 cells assessed as lung tissue damage at 1 to 10 mg/kg, ip administered 3 times a week for 3 weeks; type: organism-based; details: in vivo, 504 h, dose 1-10 mg/kg
# [21] = Toxicity in BALB/c nude mouse xenografted with human MCF7 cells assessed as spleen tissue damage at 1 to 10 mg/kg, ip administered 3 times a week for 3 weeks; type: organism-based; details: in vivo, 504 h, dose 1-10 mg/kg
# [22] = Toxicity in BALB/c nude mouse xenografted with human MCF7 cells assessed as liver tissue damage at 1 to 10 mg/kg, ip administered 3 times a week for 3 weeks; type: organism-based; details: in vivo, 504 h, dose 1-10 mg/kg
# [23] = Toxicity in BALB/c nude mouse xenografted with human MCF7 cells assessed as increase in survival rate at 10 mg/kg, ip administered 3 times a week for 3 weeks; type: organism-based; details: in vivo, 504 h
# T2 sequence (P08183 whole entry): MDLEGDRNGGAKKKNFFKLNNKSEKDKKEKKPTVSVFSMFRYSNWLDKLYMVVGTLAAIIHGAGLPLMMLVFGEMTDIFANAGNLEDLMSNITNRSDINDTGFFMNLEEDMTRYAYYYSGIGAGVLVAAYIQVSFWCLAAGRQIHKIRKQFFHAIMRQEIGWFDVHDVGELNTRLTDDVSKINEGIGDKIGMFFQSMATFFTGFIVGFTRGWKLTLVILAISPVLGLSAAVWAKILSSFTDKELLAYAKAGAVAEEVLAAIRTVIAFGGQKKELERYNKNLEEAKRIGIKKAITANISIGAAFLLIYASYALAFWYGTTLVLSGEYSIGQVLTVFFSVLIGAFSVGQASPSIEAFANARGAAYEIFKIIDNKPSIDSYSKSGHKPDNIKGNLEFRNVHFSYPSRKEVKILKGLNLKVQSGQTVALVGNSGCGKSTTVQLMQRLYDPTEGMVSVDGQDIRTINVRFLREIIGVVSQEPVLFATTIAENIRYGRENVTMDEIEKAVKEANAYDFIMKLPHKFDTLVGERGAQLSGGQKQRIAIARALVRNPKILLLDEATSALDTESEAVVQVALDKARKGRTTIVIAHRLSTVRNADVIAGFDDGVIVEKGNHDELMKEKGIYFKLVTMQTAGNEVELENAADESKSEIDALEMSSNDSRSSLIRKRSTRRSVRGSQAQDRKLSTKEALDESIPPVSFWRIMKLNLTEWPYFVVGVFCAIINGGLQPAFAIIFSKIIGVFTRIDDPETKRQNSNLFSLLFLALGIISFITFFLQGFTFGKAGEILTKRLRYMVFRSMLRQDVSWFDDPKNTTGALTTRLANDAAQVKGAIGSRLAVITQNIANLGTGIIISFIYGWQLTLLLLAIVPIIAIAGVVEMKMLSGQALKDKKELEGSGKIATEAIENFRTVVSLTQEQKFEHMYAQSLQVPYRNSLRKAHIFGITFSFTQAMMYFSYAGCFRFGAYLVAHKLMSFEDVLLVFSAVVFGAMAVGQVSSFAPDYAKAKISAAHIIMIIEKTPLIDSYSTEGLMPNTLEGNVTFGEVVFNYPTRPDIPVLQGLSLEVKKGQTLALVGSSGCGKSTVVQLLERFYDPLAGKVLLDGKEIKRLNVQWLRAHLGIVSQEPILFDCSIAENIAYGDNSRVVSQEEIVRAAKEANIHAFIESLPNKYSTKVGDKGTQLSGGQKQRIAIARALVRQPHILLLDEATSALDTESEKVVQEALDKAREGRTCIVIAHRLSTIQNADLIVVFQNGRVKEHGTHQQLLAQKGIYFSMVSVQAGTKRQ
smiles,measurement,setting,value
CC1CCCCN1CCOc1ccc2c3c(nccc13)-c1ccccc1C2=O (stereo not drawn),IC50,A549,2.39 µM
same,IC50,HepG2,4.88 µM
same,IC50,NCI/ADR-RES [1],7.64 µM
same,IC50,MDA-MB-231,2.42 µM
same,IC50,L02,36.5 µM
same,OD,Calf thymus DNA [2],2.2 nm
same,Activity,Calf thymus DNA [3],33.9%
same,inhibition,[4],Active
same,Activity,MCF7 [5],49.45%
same,Activity,MCF7 [6],25.72%
same,Activity,MCF7 [7],33.28%
same,Activity,MCF7 [8],51.07%
same,Activity,MCF7 [9],59.5%
same,Activity,MCF7 [10],Active
same,Activity,MCF7 [11],Active
same,Activity,NCI/ADR-RES [12],15.2%
same,Activity,NCI/ADR-RES [13],Active
same,Activity,Danio rerio,Active
same,Activity,NCI/ADR-RES [14],Active
same,inhibition (INH),[15],Active
same,inhibition at 10 µM,[16],14.9%
same,inhibition at 20 µM,[17],18.1%
same,inhibition in vivo at 10 mg/kg,MCF7 [18],7.2%
same,Activity,[19],Non-Toxic
same,Activity,[20],Non-Toxic
same,Activity,[21],Non-Toxic
same,Activity,[22],Non-Toxic
same,Activity,[23],Non-Toxic
